In PubChem BioAssay (NCI):
“And” between values parts separate entries of the source, which are not always exact repeats. Equal values may be shown once.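 In this assay, cells in 96-well plates receive the compound at five concentrations for 48 hours. Endpoints are linearly interpolated between the surrounding concentrations. GI50: concentration for 50% inhibition of growth. The concentration for full growth arrest is given as TGI.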

Key:
Assay in all cases: DTP human tumour cell line panel, 48 h
SW-620 colon = tested on: SW-620 colon
HT29 colon = tested on: HT29 colon
MDA-MB-231 breast = tested on: MDA-MB-231 breast
SF-295 CNS = tested on: SF-295 CNS
LOX IMVI melanoma = tested on: LOX IMVI melanoma
ACHN renal = tested on: ACHN renal
SN12C renal = tested on: SN12C renal
786-0 renal = tested on: 786-0 renal
SK-MEL-28 melanoma = tested on: SK-MEL-28 melanoma
SR leukemia = tested on: SR leukemia

| Compound | GI50 (SW-620 colon) | TGI (SW-620 colon) | GI50 (HT29 colon) | TGI (HT29 colon) | GI50 (MDA-MB-231 breast) | TGI (MDA-MB-231 breast) | GI50 (SF-295 CNS) | TGI (SF-295 CNS) | GI50 (LOX IMVI melanoma) | TGI (LOX IMVI melanoma) | GI50 (ACHN renal) | TGI (ACHN renal) | GI50 (SN12C renal) | TGI (SN12C renal) | GI50 (786-0 renal) | TGI (786-0 renal) | GI50 (SK-MEL-28 melanoma) | TGI (SK-MEL-28 melanoma) | GI50 (SR leukemia) | TGI (SR leukemia) |
| --- | --- | --- | --- | --- | --- | --- | --- | --- | --- | --- | --- | --- | --- | --- | --- | --- | --- | --- | --- | --- |
| C=CCCCc1ccc(C(O)CCCCCCCCCCCC)o1 (configuration not stated) | 22.8 µM | 62 µM | 17.1 µM | 35.4 µM | 15.6 µM | 29.8 µM | 18.2 µM | 46.6 µM | 16.9 µM | 31.1 µM | 16.8 µM | 30.4 µM | 17.2 µM | 31.4 µM | 15.2 µM | 28.5 µM | 20.6 µM | 50.6 µM | – | – |
| Cc1cccc2c(N)c3ccccc3nc12 | 0.699 µM | 11.9 µM | 0.593 µM | 3.58 µM | 1.26 µM | 5.26 µM | 1.67 µM | 10.4 µM | 0.616 µM | 3.66 µM | 0.561 µM | 14.5 µM | 1.16 µM | 12.7 µM | 1.54 µM | 7.49 µM | 2.34 µM | 6.53 µM | 0.727 µM | 13.3 µM |
| [Cl][Cd][Cl] | 19.5 µM and 17.2 µM | 37.1 µM and 76.7 µM | 45.4 µM | 130 µM | 16.5 µM | 53.9 µM | 76.4 µM | 155 µM | 24.8 µM | 75.9 µM | 77.7 µM | 162 µM | > 69 µM and 53 µM | 158 µM | 21 µM and 8.67 µM | 44.4 µM and 17.6 µM | 17.9 µM and 11.6 µM | 34.6 µM and 30.4 µM | 52.3 µM and 6.16 µM | 500 µM |
| Oc1ccc(Cl)cc1CNc1nc2ccccc2[nH]1 | 15.5 µM | 31.9 µM | 17.2 µM | 35.5 µM | 8.31 µM | 22.4 µM | 12.9 µM | 27.5 µM | 13.7 µM | 28.8 µM | 13.8 µM | 35.8 µM | 13.7 µM | 29.4 µM | 14.3 µM | 31.4 µM | 13.6 µM | 27.9 µM | 13.4 µM | 59.4 µM |
| CSc1cccc(NC(=O)OC2CCCCCCCCCCC2)c1 | – | 45.9 µM | – | 43.8 µM | – | 66.8 µM | – | 57.9 µM | – | 35.1 µM | – | > 100 µM | – | 33.2 µM | – | 53.9 µM | – | > 100 µM | – | > 100 µM |
| COc1ccc(C2=CC(c3ccc(OC)c(OC)c3)c3c(c4ccccc4oc3=O)O2)cc1OC (configuration not stated) | 1.19 µM | > 100 µM | 0.822 µM | 31 µM | 3.46 µM | > 51.4 µM | 0.442 µM | > 100 µM | 4.22 µM | > 100 µM | 3.03 µM | > 100 µM | 4.39 µM | > 100 µM | 1.15 µM | 11.7 µM | – | > 100 µM | 0.498 µM | > 100 µM |
